Laboratory results as given in patent US7452865B2, “Antagonistic analogs of GH RH (2003)” (The Administrare's of the Tulane Educational Fund, priority 2004, dated 2008).
Marks after values point to notes of the source that are not given here. Square brackets hold non-standard residues; d marks the D form. Peptide text beside a SMILES is read from it. * marks the point of attachment. Phe(4-Cl) = N[C@@H](Cc1ccc(Cl)cc1)C(=O)O; hArg = N=C(N)NCCCC[C@H](N)C(=O)O; Nle = CCCC[C@H](N)C(=O)O; Abu = CC[C@H](N)C(=O)O; PhAc = O=C(Cc1ccccc1)*

Columns and labels:
[1] = test system: GH-RH receptor isoforms on membrane fractions of human PC-3 prostate tumors; type: binding; settings: general statement
Procedure, shortened: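 Competitive displacement of [^125I]JV-1-42 from crude membranes of human PC-3 prostate tumours grown as nude-mouse xenografts, with unlabelled peptides at 10^−12 to 10^−6 M. Bound radioactivity in the centrifuged pellet gamma-counted; Ki from Munson–Rodbard analysis. Relative affinity = Ki of reference peptide (JV-1-36 or JV-1-38) / Ki of test antagonist.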

[2] = test system: PC-3 human prostate cancer xenografts; assay: PC-3 xenografts in nude mice, Experiment 4: tumor growth; type: in vivo; settings: for Tumor volume (mm^3) Final / Tumor volume doubling time / Tumor weight / Tumor volume Final (% inhibition) / Tumor weight (% inhibition): 5 μg/day s.c., 28 days; for Tumor volume Final (% inhibition) / Tumor weight (% inhibition): vs control; for Tumor volume (mm^3) Initial: at start of treatment
Protocol: (§1) Male nude mice were implanted s.c. with 3 mm^3 pieces of PC-3 human hormone-independent prostate cancer tissue on both flanks. When tumors reached a volume of approximately 65 mm^3, the mice were divided into 7 experimental groups with 8 to 9 animals in each group and received single daily injections for 28 days as follows: 1. Control (vehicle solution); 2. JV-1-38 (10 μg/day s.c.); 3. Peptide 35 (10 μg/day s.c.); 4. Peptide 36 (10 μg/day s.c.); 5. Peptide 37 (10 μd/day s.c.); 6. Peptide 39 (10 μg/day s.c.); 7. Peptide 41 (10 μg/day s.c.). Tumor volumes were measured twice a week. The experiment was ended on day 28 by sacrificing the mice under Isofurane anesthesia. Resulting tumors were cleaned, weighed, and snapfrozen until further analyses. Trunk blood was collected from the abdominal aorta and serum was separated for RIA measurement of IGF-I. Statistical analyses of the measurement results were done by ANOVA followed by Fisher test; data are presented as the means±S.E.
(§2) All experimental details of Experiment 4 are the same as for Experiment 3, with the following difference. When tumors reached a volume of approximately 55 mm^3, the mice were divided into 5 experimental groups with 8 to 9 animals in each group and received single daily injections for 28 days as follows: 1. Control (vehicle solution); 2. Peptide 80 (5 μg/day s.c.); 3. Peptide 86 (5 μg/day s.c.); 4. Peptide 95 (5 μg/day s.c.); 5. Peptide 96 (5 μg/day s.c.). Further details of Experiment 4 are the same as for Experiment 3.

IGF-I [3] = assay: PC-3 xenografts, Experiment 4: serum IGF-I (RIA); type: in vivo, nude mice; settings: 5 μg/day s.c., 28 days; for Serum IGF-I (% inhibition): vs control
Source text: (§3) For the measurement of GH and IGF-I levels in the serum, as well as IGF-I and IGF-II concentrations in the cytosol fraction of tumors, blood samples and tumor samples were collected and processed as described (Braczkowski R, Schally A V, Plonowski A, Varga J L, Groot K, Krupa M, Armatis P, Cancer 95: 1735-1745, 2002), hereby incorporated by reference. Briefly, blood samples are centrifuged to separate the serum, tumors are homogenized and centrifuged to separate the cytosol fraction. Serum GH is then measured by the double-antibody RIA method. Before measurement by RIA, IGF-I and IGF-II are extracted from serum and cytosol fractions using an acid-ethanol cryoprecipitation method that eliminates most of the IGF binding proteins, which can interfere with the RIA. IGF-I concentration is measured by RIA using IGF-I as a standard and goat anti-IGF-I antibody (both from DSL Inc., Webster, Tex.). IGF-II concentration is measured by RIA using human recombinant IGF-II (Bachem) as a standard and anti-IGF-II monoclonal antibody (Amano International Enzyme, Troy, Va.).
as §1, §2

[4] = test system: PC-3 human prostate cancer xenografts; assay: PC-3 xenografts in nude mice, Experiment 2: tumor growth; type: in vivo
Protocol: (§4) Male nude mice were implanted s.c. with 3 mm^3 pieces of PC-3 human hormone-independent prostate cancer tissue on both flanks. When tumors reached a volume of approx. 50 mm^3, the mice were divided into 5 experimental groups with 7 to 8 animals in each group and received single daily injections for 28 days as follows: 1. Control (vehicle solution); 2. JV-1-38 (10 μg/day s.c.); 3 Peptide 31 (10 μg/day s.c.); 4. Peptide 67 (10 μg/day s.c.); 5. Peptide 62 (10 μg/day s.c.). Tumor volumes were measured twice a week. The experiment was ended on day 29 by sacrificing the mice under Isoflurane anesthesia. Resulting tumors were cleaned, weighed, and snap-frozen until further analyses. Trunk blood was collected from the abdominal aorta and serum was separated for RIA measurement of IGF-I. Statistical analyses of the measurement results were done by two-tailed t-test; data are presented as the means±S.E.
(§5) Experiment 2 was similar to Experiment 1, with the difference that Experiment 2 was started when PC-3 tumors had grown to approximately 30 mm^3 in volume. At this time, the animals were divided into 8 experimental groups with 8 animals in each group, and received single daily injections for 28 days as follows. 1. Control (vehicle solution); 2. JV-1-38 (10 μg/day s.c.); 3. Peptide 46 (5 μg/day: s.c.); 4. Peptide 77 (5 μg/day s.c); 5. Peptide 76 (5 μg/day s.c.); 6. Peptide 70 (5 μg/day s.c.); 7 Peptide 79 (5 μg/day s.c.); 8. Peptide 80 (5 μg/day s.c.). Further details of Experiment 2 are the same as for Experiment 1.

IGF-I [5] = assay: PC-3 xenografts, Experiment 2: serum IGF-I (RIA); type: in vivo, nude mice; settings: 5 μg/day s.c., 28 days
Source text: as §3, §4, §5

[6] = test system: hGH-RH(1-29)NH2 induced GH release; assay: Inhibition of GH release in superfused rat pituitary system; type: cell-based
Procedure, shortened: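 GH output was quantified by double-antibody RIA in superfusates of rat pituitary cells. Peptides were applied for 9 min at various concentrations before a 3-min 1 nM hGH-RH(1-29)NH2 pulse, with further pulses 30–120 min later; net integral responses given as percent of the original response.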

[7] = test system: PC-3 human prostate cancer xenografts; assay: PC-3 xenografts in nude mice, Experiment 1: tumor growth; type: in vivo
Protocol: as §4

IGF-I [8] = assay: PC-3 xenografts, Experiment 1: serum IGF-I (RIA); type: in vivo, nude mice; settings: 10 μg/day s.c., 28 days
Source text: as §3, §4

[9] = 5 μg/day s.c., 28 days, vs control
[10] = 10 μg/day s.c., 28 days, vs control

Row | Molecule | binding affinities to the tumoral receptors for GH-RH (in words) [1] | Tumor volume (mm^3) Final [2] | Tumor volume doubling time [2] [days] | Tumor weight [2] [mg] | Tumor volume Final (% inhibition) [2] [%] | Tumor weight (% inhibition) [2] [%] | Tumor volume (mm^3) Initial [2] [mm^3] | Serum IGF-I (IGF-I [3]) [ng/mL] | Serum IGF-I (% inhibition) (IGF-I [3]) [%] | further results
1 | [CH3(CH2)6CO-Tyr^1, D-Arg^2, Phe(pCl)^6, Ala^8, His^9, Tyr(Et)^10, His^11, Abu^15, His^20, Nle^27, D-Arg^28, Har^29]hGH-RH(1-29)NH2 [Peptide 86] | extremely high binding affinities | 397 ± 71.8* mm^3 | 12.1 ± 1.40 | 643 ± 94.9 | 68 | 56 | 56.1 ± 8.67 | 118 ± 8.94 | 28 | 
2 | [CH3(CH2)6CO-Tyr^1, D-Arg^2, Phe(pCl)^6, Ala^8, His^9, Tyr(Et)^10, His^11, Abu^15, Nle^27, D-Arg^28, Har^29]hGH-RH(1-29)NH2 [Peptide 80] | extremely high binding affinities | 398 ± 68.7* mm^3 | 10.7 ± 1.28 | 752 ± 150 | 68 | 48 | 53.2 ± 10.1 | 136 ± 15.3 | 18 | Tumor volume (mm^3) Initial ([4]; 5 μg/day groups, at start of treatment): 24.8 ± 2.2 mm^3; Tumor volume (mm^3) Final ([4]; 5 μg/day s.c., 28 days): 128 ± 38.9*# mm^3; Tumor volume doubling time ([4]; 5 μg/day s.c., 28 days): 16.7 ± 4.3 days; Tumor weight ([4]; 5 μg/day s.c., 28 days): 137 ± 46.1 mg; Tumor volume Final (% inhibition) [4, 9]: (64%); Tumor weight (% inhibition) [4, 9]: (52%); Serum IGF-I (IGF-I [5]): 152 ± 7.83 ng/mL; Serum IGF-I (% inhibition) (IGF-I [5]; vs control): 42%
3 | [CH3(CH2)6CO-Tyr^1, D-Arg^2, Phe(pCl)^6, Ala^8, His^9, Tyr(Et)^10, His^11, Orn^12, Abu^15, Orn^21, Nle^27, D-Arg^28, Har^29]hGH-RH(1-29)NH2 [Peptide 95] | extremely high binding affinities | 393 ± 79.8* mm^3 | 12.5 ± 1.80 | 666 ± 131 | 69 | 54 | 60.9 ± 12.2 | 127 ± 17.5 | 23 | 
4 | CCCC[C@H](NC(=O)[C@@H](NC(=O)[C@H](CC(=O)O)NC(=O)[C@H](CCC(N)=O)NC(=O)[C@H](CC(C)C)NC(=O)[C@H](CC(C)C)NC(=O)[C@H](CCCCN)NC(=O)[C@H](CCCNC(=N)N)NC(=O)[C@H](C)NC(=O)[C@H](CO)NC(=O)[C@H](CC(C)C)NC(=O)[C@H](CCC(N)=O)NC(=O)[C@H](CC)NC(=O)[C@H](CC(C)C)NC(=O)[C@@H](NC(=O)[C@H](CCCCN)NC(=O)[C@H](Cc1c[nH]cn1)NC(=O)[C@H](Cc1ccc(OC)cc1)NC(=O)[C@H](CCCCNC(=N)N)NC(=O)[C@H](CC(N)=O)NC(=O)[C@@H](NC(=O)[C@H](Cc1ccc(Cl)cc1)NC(=O)[C@@H](NC(=O)[C@H](C)NC(=O)[C@H](CC(=O)O)NC(=O)[C@@H](CCCNC(=N)N)NC(=O)[C@H](Cc1ccc(O)cc1)NC(=O)Cc1ccccc1)[C@@H](C)CC)[C@@H](C)O)C(C)C)[C@@H](C)CC)C(=O)N[C@H](CCCNC(=N)N)C(=O)N[C@@H](CCCCNC(=N)N)C(N)=O [Peptide 62, [PhAc-Tyr^1, D-Arg^2, Phe(pCl)^6, Har^9, Tyr(Me)^10, His^11, Abu^15, Nle^27, D-Arg^28, Har^29]hGH-RH(1-29)NH2] (PhAc-Y[dR]DAI[Phe(4-Cl)]TN[hArg]Y(Me)HKVL[Abu]QLSARKLLQDI[Nle][dR][hArg]-NH2) | extremely high binding affinities |  |  |  |  |  |  |  |  | GH response (% of control) 0 min ([6]; antagonist 30 nM, 1 nM hGH-RH(1-29)NH2 at 0 min): 20 % of control; GH response (% of control) 30 min ([6]; antagonist 30 nM, 1 nM hGH-RH(1-29)NH2 at 30 min): 16 % of control; GH response (% of control) 60 min ([6]; antagonist 30 nM, 1 nM hGH-RH(1-29)NH2 at 60 min): 14 % of control; GH response (% of control) 90 min ([6]; antagonist 30 nM, 1 nM hGH-RH(1-29)NH2 at 90 min): 21 % of control; GH response (% of control) 120 min ([6]; antagonist 30 nM, 1 nM hGH-RH(1-29)NH2 at 120 min): 21 % of control; endocrine antagonistic potency: inhibition of the GH release stimulated by hGH-RH(1-29)NH2 (in words) ([6]; general statement, in vitro and in vivo): high endocrine antagonistic potencies; Tumor volume (mm^3) Final ([7]; 10 μg/day s.c., 28 days): 215 ± 50.4 mm^3; Tumor volume doubling time ([7]; 10 μg/day s.c., 28 days): 18.4 ± 4.96 days; Tumor volume Final (% inhibition) [7, 10]: (57%); Tumor weight (% inhibition) [7, 10]: (47%); inhibitory effect on the growth of PC-3 tumors (in words) ([7]; 10 μg/day s.c., compared with JV-1-38): stronger inhibitory effect on the growth of PC-3 tumors than the reference peptide JV-1-38; Tumor volume (mm^3) Initial ([7]; at start of treatment): 56.1 ± 18.2 mm^3; Serum IGF-I (IGF-I [8]): 141 ± 8.86 ng/mL; Serum IGF-I (% inhibition) (IGF-I [8]; vs control): (5%)
5 | [CH3(CH2)6CO-Tyr^1, D-Arg^2, Phe(pCl)^6, Ala^8, His^9, Tyr(Et)^10, His^11, Orn^12, Abu^15, His^20, Orn^21, Nle^27, D-Arg^28, Har^29]hGH-RH(1-29)NH2 [Peptide 96] | extremely high binding affinities | 301 ± 65.2** mm^3 | 11.0 ± 0.87 | 489 ± 114 | 77 | 66 | 56.2 ± 13.3 | 114 ± 15.5 | 31 | antitumor effect on PC-3 tumors (in words) ([2]; 5 μg/day): strongest antitumor effect
